Results on 29 compounds are retold here after US12331035B2, “Bicyclic compound and use thereof” (SK BIOPHARMACEUTICALS CO., LTD., priority 2019, dated 2025).

T1 sequence (O14744 2-637 limits assumed): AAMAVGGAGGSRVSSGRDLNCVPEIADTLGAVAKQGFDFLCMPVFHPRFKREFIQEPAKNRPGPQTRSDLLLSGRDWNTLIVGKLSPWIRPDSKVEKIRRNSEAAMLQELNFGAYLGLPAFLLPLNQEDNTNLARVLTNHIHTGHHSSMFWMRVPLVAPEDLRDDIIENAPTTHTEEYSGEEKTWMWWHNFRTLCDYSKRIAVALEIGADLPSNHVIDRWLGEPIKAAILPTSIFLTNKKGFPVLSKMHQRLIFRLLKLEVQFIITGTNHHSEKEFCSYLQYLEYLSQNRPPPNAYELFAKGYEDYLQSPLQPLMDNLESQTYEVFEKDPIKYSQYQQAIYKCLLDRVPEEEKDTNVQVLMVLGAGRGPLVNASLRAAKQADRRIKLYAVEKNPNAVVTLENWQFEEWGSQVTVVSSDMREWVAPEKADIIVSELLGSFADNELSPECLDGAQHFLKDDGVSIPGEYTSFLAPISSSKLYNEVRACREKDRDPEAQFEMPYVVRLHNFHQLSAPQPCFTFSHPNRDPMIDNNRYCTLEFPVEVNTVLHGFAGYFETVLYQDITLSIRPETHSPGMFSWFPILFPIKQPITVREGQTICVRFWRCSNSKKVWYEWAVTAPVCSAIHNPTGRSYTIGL
T1 sequence (Q9BQA1 2-342 partner limits assumed): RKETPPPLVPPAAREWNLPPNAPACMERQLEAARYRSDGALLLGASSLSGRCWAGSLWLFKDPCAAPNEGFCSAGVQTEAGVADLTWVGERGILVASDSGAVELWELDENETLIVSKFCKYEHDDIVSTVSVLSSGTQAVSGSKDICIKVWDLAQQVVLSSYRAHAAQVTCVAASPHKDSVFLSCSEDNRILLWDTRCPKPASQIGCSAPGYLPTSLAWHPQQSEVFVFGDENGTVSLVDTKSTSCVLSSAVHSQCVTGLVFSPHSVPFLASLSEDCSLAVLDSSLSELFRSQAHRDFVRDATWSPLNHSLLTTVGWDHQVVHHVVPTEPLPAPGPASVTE

The assay has as its target T1, PRMT5-MEP50 enzyme complex (Homo sapiens, UniProt O14744).
T1 construct: purchased BPS Bioscience (USA) 51045
Briefly: In vitro PRMT5 enzyme activity assay (methylation of histone H4 arginine H4R3, ELISA absorbance at 450 nm). Type of assay: biochemical. Conditions: S-adenosylmethionine, histone H4 peptide, 2 hours at room temperature, 8 points 10 μM to 0.128 nM. Put shortly:
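Human PRMT5-MEP50 (5 μg/mL working stock) with 2 μM SAM stock on histone H4 (1-20) peptide-coated plates, compound 8-point 1:5 series from 10 μM, 2 h at room temperature. H4R3 methylation detected by antibody/HRP ELISA, absorbance 450 nm; IC50 calculated.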
Background: An ELISA detects its analyte on a solid surface through an enzyme-linked reagent.
In the case of `CC(C)(C)OC(=O)N1CCCN(c2ccc3c(c2)CCN(C[C@H](O)CN2CCc4ccccc4C2)C3=O)CC1` [Example 78, tert-butyl 4-[2-[(2R)-3-(3,4-dihydro-1H-isoquinolin-2-yl)-2-hydroxy-propyl]-1-oxo-3,4-dihydroisoquinolin-6-yl]-1,4-diazepane-1-carboxylate], the IC50 lay in the range of 1 to 100 nM.
The compound `CN1CCCN(c2ccc3c(c2)CCN(C[C@H](O)CN2CCc4ccccc4C2)C3=O)CC1=O` [Example 79, 2-[(2R)-3-(3,4-dihydro-1H-isoquinolin-2-yl)-2-hydroxy-propyl]-6-(4-methyl-3-oxo-1,4-diazepan-1-yl)-3,4-dihydroisoquinolin-1-one] gave an IC50 of 1 to 100 nM.
In the case of `CC(=O)N1CCCN(c2ccc3c(c2)CCN(C[C@H](O)CN2CCc4ccccc4C2)C3=O)CC1` [Example 80, 6-(4-acetyl-1,4-diazepan-1-yl)-2-[(2R)-3-(3,4-dihydro-1H-isoquinolin-2-yl)-2-hydroxy-propyl]-3,4-dihydroisoquinolin-1-one], the IC50 was in the range of 1 to 100 nM.
Consider `CC(=O)N1CC2CC1CN2c1ccc2c(c1)CCN(C[C@H](O)CN1CCc3ccccc3C1)C2=O` (stereo partly drawn) [Example 81, 6-(5-acetyl-2,5-diazabicyclo[2.2.1]heptan-2-yl)-2-[(2R)-3-(3,4-dihydro-1H-isoquinolin-2-yl)-2-hydroxy-propyl]-3,4-dihydroisoquinolin-1-one], for which the IC50 was 1 to 100 nM.
On to `CC(=O)N1CCN(c2ccc3c(c2)CCN(C[C@H](O)CN2CCc4ccccc4C2)C3=O)CC12CC2` [Example 82, 6-(4-acetyl-4,7-diazaspiro[2.5]octan-7-yl)-2-[(2R)-3-(3,4-dihydro-1H-isoquinolin-2-yl)-2-hydroxy-propyl]-3,4-dihydroisoquinolin-1-one], for which the IC50 is 1 to 100 nM.
Regarding `CC(=O)N1CCC(COc2ccc3c(c2)CCN(C[C@H](O)CN2CCc4ccccc4C2)C3=O)CC1` [Example 83, 6-[(1-acetyl-4-piperidyl)methoxy]-2-[(2R)-3-(3,4-dihydro-1H-isoquinolin-2-yl)-2-hydroxy-propyl]-3,4-dihydroisoquinolin-1-one], the IC50 is 100 to 1000 nM.
`CN1CCN(c2ccc3c(c2)CCN(C[C@H](O)CN2CCc4ccccc4C2)C3=O)CCC1=O` [Example 84, 2-[(2R)-3-(3,4-dihydro-1H-isoquinolin-2-yl)-2-hydroxy-propyl]-6-(4-methyl-5-oxo-1,4-diazepan-1-yl)-3,4-dihydroisoquinolin-1-one]: the IC50 is 100 to 1000 nM.
Then `CC(C)N1CCN(c2ccc3c(c2)CCN(C[C@H](O)CN2CCc4ccccc4C2)C3=O)CC1=O` [Example 85, 2-[(2R)-3-(3,4-dihydro-1H-isoquinolin-2-yl)-2-hydroxy-propyl]-6-(4-isopropyl-3-oxo-piperazin-1-yl)-3,4-dihydroisoquinolin-1-one], with 100 to 1000 nM.
`CC(=O)N1CCN(c2ccc3c(c2)CCN(C[C@H](O)CN2CCc4ccccc4C2)C3=O)C(=O)C1` [Example 86, 6-(4-acetyl-2-oxo-piperazin-1-yl)-2-[(2R)-3-(3,4-dihydro-1H-isoquinolin-2-yl)-2-hydroxy-propyl]-3,4-dihydroisoquinolin-1-one] displayed an IC50 of 100 to 1000 nM.
`CC(=O)N1CCN(c2ccc3c(n2)CCN(C[C@H](O)CN2CCc4ccccc4C2)C3=O)CC1` [Example 88, 2-(4-acetylpiperazin-1-yl)-6-[(2R)-3-(3,4-dihydro-1H-isoquinolin-2-yl)-2-hydroxy-propyl]-7,8-dihydro-1,6-naphthyridin-5-one] came in with an IC50 of 1 to 100 nM.
Take `O=C1c2ccc(N3CCOCC3)nc2CCN1C[C@H](O)CN1CCc2ccccc2C1` [Example 89, 6-[(2R)-3-(3,4-dihydro-1H-isoquinolin-2-yl)-2-hydroxy-propyl]-2-morpholino-7,8-dihydro-1,6-naphthyridin-5-one]: the IC50 lay in the range of 1 to 100 nM.
`CC(=O)N(C)C1CCN(c2ccc3c(c2)CCN(C[C@H](O)CN2CCc4ccccc4C2)C3=O)CC1` [Example 90, N-[1-[2-[(2R)-3-(3,4-dihydro-1H-isoquinolin-2-yl)-2-hydroxy-propyl]-1-oxo-3,4-dihydroisoquinolin-6-yl]-4-piperidyl]-N-methyl-acetamide] showed an IC50 of 1 to 100 nM.
Then `O=C1c2ccc(OC3CCOCC3)cc2CCN1C[C@H](O)CN1CCc2ccccc2C1` [Example 91, 2-[(2R)-3-(3,4-dihydro-1H-isoquinolin-2-yl)-2-hydroxy-propyl]-6-tetrahydropyran-4-yloxy-3,4-dihydroisoquinolin-1-one], with 1 to 100 nM; and `CC(=O)NC1CCN(c2ccc3c(c2)CCN(C[C@H](O)CN2CCc4ccccc4C2)C3=O)CC1` [Example 92, N-[1-[2-[(2R)-3-(3,4-dihydro-1H-isoquinolin-2-yl)-2-hydroxy-propyl]-1-oxo-3,4-dihydroisoquinolin-6-yl]-4-piperidyl]acetamide], with 100 to 1000 nM; and `CC(=O)N1CCCC(Nc2ccc3c(c2)CCN(C[C@H](O)CN2CCc4ccccc4C2)C3=O)C1` (stereo partly drawn) [Example 93, 6-[(1-acetyl-3-piperidyl)amino]-2-[(2R)-3-(3,4-dihydro-1H-isoquinolin-2-yl)-2-hydroxy-propyl]-3,4-dihydroisoquinolin-1-one], with 1 to 100 nM.
The compound `O=C1c2ccc(N3CCN4C(=O)OCC4C3)cc2CCN1C[C@H](O)CN1CCc2ccccc2C1` (stereo partly drawn) [Example 94, 7-[2-[(2R)-3-(3,4-dihydro-1H-isoquinolin-2-yl)-2-hydroxy-propyl]-1-oxo-3,4-dihydroisoquinolin-6-yl]-5,6,8,8a-tetrahydro-1H-oxazolo[3,4-a]pyrazin-3-one] showed an IC50 of 1 to 100 nM.
In the case of `CC(=O)N1CCC(Oc2ccc3c(c2)CCN(C[C@H](O)CN2CCc4ccccc4C2)C3=O)CC1` [Example 95, 6-[(1-acetyl-4-piperidyl)oxy]-2-[(2R)-3-(3,4-dihydro-1H-isoquinolin-2-yl)-2-hydroxy-propyl]-3,4-dihydroisoquinolin-1-one], the 50% inhibitory concentration (IC50) fell in the range of 100 to 1000 nM.
In turn, `CC(=O)N1CC(Oc2ccc3c(c2)CCN(C[C@H](O)CN2CCc4ccccc4C2)C3=O)C1` [Example 96, 6-(1-acetylazetidin-3-yl)oxy-2-[(2R)-3-(3,4-dihydro-1H-isoquinolin-2-yl)-2-hydroxy-propyl]-3,4-dihydroisoquinolin-1-one] returned a half-maximal inhibitory concentration (IC50) of 100 to 1000 nM.
Consider `CN(C)C(=O)C1CCN(c2ccc3c(c2)CCN(C[C@H](O)CN2CCc4ccccc4C2)C3=O)CC1` [Example 97, 1-[2-[(2R)-3-(3,4-dihydro-1H-isoquinolin-2-yl)-2-hydroxy-propyl]-1-oxo-3,4-dihydroisoquinolin-6-yl]-N,N-dimethyl-piperidine-4-carboxamide], for which the IC50 lay in the range of 100 to 1000 nM.
As for `CC(=O)N1CCCC(Nc2ccc3c(c2)CCN(C[C@H](O)CN2CCc4ccccc4C2)C3=O)CC1` (stereo partly drawn) [Example 98, 6-[(1-acetylazepan-4-yl)amino]-2-[(2R)-3-(3,4-dihydro-1H-isoquinolin-2-yl)-2-hydroxy-propyl]-3,4-dihydroisoquinolin-1-one], the concentration for half-maximal inhibition (IC50) was 100 to 1000 nM.
Regarding `CC(=O)N1CCC(Nc2ccc3c(c2)CCN(C[C@H](O)CN2CCc4ccccc4C2)C3=O)C1` (stereo partly drawn) [Example 99, 6-[(1-acetylpyrrolidin-3-yl)amino]-2-[(2R)-3-(3,4-dihydro-1H-isoquinolin-2-yl)-2-hydroxy-propyl]-3,4-dihydroisoquinolin-1-one], the IC50 is 100 to 1000 nM.
`N#CN1CCN(c2ccc3c(c2)CCN(C[C@H](O)CN2CCc4ccccc4C2)C3=O)CC1` [Example 101, 4-[2-[(2R)-3-(3,4-dihydro-1H-isoquinolin-2-yl)-2-hydroxy-propyl]-1-oxo-3,4-dihydroisoquinolin-6-yl]piperazine-1-carbonitrile] had an IC50 of 1 to 100 nM.
Compound `O=C1c2ccc(N3CCn4ccnc4C3)cc2CCN1C[C@H](O)CN1CCc2ccccc2C1` [Example 102, 6-(6,8-dihydro-5H-imidazo[1,2-a]pyrazin-7-yl)-2-[(2R)-3-(3,4-dihydro-1H-isoquinoline-2-yl)-2-hydroxy-propyl]-3,4-dihydroisoquinolin-1-one] had an IC50 of 1 to 100 nM.
Then `CC1CN(c2ccc3c(c2)CCN(C[C@H](O)CN2CCc4ccccc4C2)C3=O)CC(=O)N1C` (stereo partly drawn) [Example 103, 2-[(2R)-3-(3,4-dihydro-1H-isoquinolin-2-yl)-2-hydroxy-propyl]-6-(3,4-dimethyl-5-oxo-piperazin-1-yl)-3,4-dihydroisoquinolin-1-one], with 1 to 100 nM.
`CC(=O)N1CCN(c2ccc3c(c2)C(C)(C)CN(C[C@H](O)CN2CCc4ccccc4C2)C3=O)CC1` [Example 104, 6-(4-acetylpiperazin-1-yl)-2-[(2R)-3-(3,4-dihydro-1H-isoquinolin-2-yl)-2-hydroxy-propyl]-4,4-dimethyl-3H-isoquinolin-1-one] registered an IC50 of 1 to 100 nM.
The compound `CC(=O)N1CCN(c2ccc3c(c2)C2(CC2)CN(C[C@H](O)CN2CCc4ccccc4C2)C3=O)CC1` [Example 105, 6-(4-acetylpiperazin-1-yl)-2-[(2R)-3-(3,4-dihydro-1H-isoquinolin-2-yl)-2-hydroxy-propyl]spiro[3H-isoquinoline-4,1′-cyclopropane]-1-one] registered an IC50 of 1 to 100 nM.
For `O=C1c2ccc(N3CCC(N4CCCC4)CC3)cc2CCN1C[C@H](O)CN1CCc2ccccc2C1` [Example 106, 2-[(2R)-3-(3,4-dihydro-1H-isoquinolin-2-yl)-2-hydroxy-propyl]-6-(4-pyrrolidin-1-yl-1-piperidyl)-3,4-dihydroisoquinolin-1-one], the IC50 was 1 to 100 nM.
The same measure for `O=C1c2ccc(N3CCC(N4CCCCC4)CC3)cc2CCN1C[C@H](O)CN1CCc2ccccc2C1` [Example 107, 2-[(2R)-3-(3,4-dihydro-1H-isoquinolin-2-yl)-2-hydroxy-propyl]-6-[4-(1-piperidyl)-1-piperidyl]-3,4-dihydroisoquinolin-1-one]: 100 to 1000 nM; for `O=C1c2ccc(N3CCC(N4CCOCC4)CC3)cc2CCN1C[C@H](O)CN1CCc2ccccc2C1` [Example 108, 2-[(2R)-3-(3,4-dihydro-1H-isoquinolin-2-yl)-2-hydroxy-propyl]-6-(4-morpholino-1-piperidyl)-3,4-dihydroisoquinolin-1-one]: 100 to 1000 nM.

As a reminder, the IC50 is the point on the concentration scale where inhibition reaches its midpoint.
